Test results from patent publication US20220204497A1, “NOVEL COMPOUND HAVING ANTICANCER ACTIVITY, AND METHOD FOR PRODUCING SAME” (MEDICINAL BIOCONVERGENCE RESEARCH CENTER, priority 2019, published 2022).

Legend:
A549 cells = assay: Cell viability by MTT method in A549 cells; assay type: cell-based; parameters: concentration or dose not given beside the values; settings: 72 hours treatment
AIMP2-DX2 = biological target: T1, AIMP2-DX2 (Homo sapiens, UniProt Q13155); assay: DX2-nanoluciferase assay (DX2 expression change) in transfected A549 cells; settings: inhibitory effect on AIMP2-DX2 expression; for inhibition at 40 µM: A549, 4 h, read-out: DX-Nanoluciferase activity (40 μM), 40 μM, 4 hours treatment, A549 cells transfected with nanoluciferase-DX2; for DX-Nanoluciferase activity (40 μM): 4 hours treatment, A549 cells transfected with nanoluciferase-DX2
T1 sequence (Q13155 1-251 isoform Q13155-2): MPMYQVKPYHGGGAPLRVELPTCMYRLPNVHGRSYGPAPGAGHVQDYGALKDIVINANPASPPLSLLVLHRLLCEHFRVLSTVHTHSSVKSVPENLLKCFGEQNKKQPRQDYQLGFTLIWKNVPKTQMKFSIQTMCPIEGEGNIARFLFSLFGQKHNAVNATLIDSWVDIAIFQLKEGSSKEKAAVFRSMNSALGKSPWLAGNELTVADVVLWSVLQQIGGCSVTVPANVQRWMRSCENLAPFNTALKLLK
Method: After cloning DX2 into a plasmid expressing nanoluciferase, the plasmid was transfected into A549 cells. Transfected cells were seeded 1×10^4 per well in a 96-well plate and stabilized for 12 hours. […] Cell viability was measured by the MTT method after 72 hours of treatment with each concentration of the compound in A549 cells.

| inhibition at 40 µM (AIMP2-DX2) [%] | Compound | Cell Viability (% inhibition) (A549) (A549 cells) [%] | DX-Nanoluciferase activity (40 μM) (AIMP2-DX2) |
| --- | --- | --- | --- |
| 1.5 | Cc1ccc(S(=O)(=O)N[C@@H](CC(C)C)C(=O)Nc2cc(N3CCC(C)CC3)ncn2)cc1 [Compound 10, (S)-4-methyl-2-(4-methylphenylsulfonamido)-N-(6-(4-methylpiperidin-1-yl)pyrimidin-4-yl)pentanamide] | 72.7 |  |
| 43.8 ± 8.7 | Cc1ccc(S(=O)(=O)N[C@@H](CC(C)C)C(=O)Nc2ccc(N3CCOCC3)nc2)cc1 [Compound 12, (S)-4-Methyl-2-(4-methylphenylsulfonamido)-N-(6-morpholinopyridin-3-yl)pentanamide] | 23.26 |  |
| 51.3 ± 4 | Cc1ccc(S(=O)(=O)N[C@@H](CC(C)C)C(=O)Nc2ccc(N3C[C@@H](C)O[C@@H](C)C3)nc2)cc1 [Compound 13, (S)—N-(6-((2S,6R)-2,6-dimethylmorpholino)pyridin-3-yl)-4-methyl-2-(4-methylphenylsulfonamido)pentanamide] | 14.99 |  |
| 55.6 ± 1.06 | Cc1ccc(S(=O)(=O)N[C@@H](CC(C)C)C(=O)Nc2ccc(N3CCOCC3)c(F)c2)cc1 [Compound 14, (S)—N-(3-fluoro-4-morpholinophenyl)-4-methyl-2-(4-methylphenylsulfonamido)pentanamide] | 29.87 ± 2.48 |  |
| 9.8 | Cc1ccc(S(=O)(=O)N[C@@H](CC(C)C)C(=O)Nc2ccc(N3CCN(C(=O)OC(C)(C)C)CC3)nc2)cc1 [Compound 16, (S)-tert-butyl 4-(5-(4-methyl-2-(4-methylphenylsulfonamido)pentanamido)pyridin-2-yl)piperazine-1-carboxylate] | 73.5 |  |
| 14.8 | Cc1ccc(S(=O)(=O)N[C@@H](CC(C)C)C(=O)NCCN2CCOCC2)cc1 [Compound 18, (S)-4-methyl-2-(4-methylphenylsulfonamido)-N-(2-morpholinoethyl)pentanamide] | 8.7 |  |
| 33.8 ± 8.2 | CC(C)C[C@H](NS(=O)(=O)c1cccc([N+](=O)[O-])c1)C(=O)N1CCOCC1 [Compound 19, (S)—N-(4-methyl-1-morpholino-1-oxopentan-2-yl)-3-nitrobenzenesulfonamide] | 22.61 |  |
| 31 ± 9.9 | CC(C)C[C@H](NS(=O)(=O)c1cccc(N)c1)C(=O)N1CCOCC1 [Compound 20, (S)-3-amino-N-(4-methyl-1-morpholino-1-oxopentan-2-yl)benzenesulfonamide] | 24.57 |  |
| 24.5 ± 4.4 | CC(C)C[C@H](NS(=O)(=O)c1ccc(C(F)(F)F)cc1)C(=O)Nc1ccc(N2CCOCC2)cc1 [Compound 23, (S)-4-methyl-N-(4-morpholinophenyl)-2-(4-(trifluoromethyl)phenylsulfonamido)pentanamide] | 64.35 |  |
| 59.4 ± 2.3 | CC(C)C[C@H](NS(=O)(=O)c1cccc([N+](=O)[O-])c1)C(=O)Nc1ccc(N2CCOCC2)cc1 [Compound 24, (S)-4-methyl-N-(4-morpholinophenyl)-2-(3-nitrophenylsulfonamido)pentanamide] | 18.38 ± 11.76 |  |
| 25.5 ± 5.4 | CC(C)C[C@H](NS(=O)(=O)c1cccc2ccccc12)C(=O)Nc1ccc(N2CCOCC2)cc1 [Compound 25, (S)-4-methyl-N-(4-morpholinophenyl)-2-(naphthalene-1-sulfonamido)pentanamide] | 38.92 ± 1.69 |  |
| 52.7 ± 10.5 | CC(C)C[C@H](NS(=O)(=O)c1ccc2ccccc2c1)C(=O)Nc1ccc(N2CCOCC2)cc1 [Compound 26, (S)-4-methyl-N-(4-morpholinophenyl)-2-(naphthalene-2-sulfonamido)pentanamide] | 5.95 ± 2.15 |  |
|  | CC(C)C[C@H](NC(=O)CCS(=O)(=O)c1ccccc1)C(=O)OCc1ccccc1 [Compound 28, (S)-Benzyl 4-methyl-2-(3-(phenylsulfonyl)propanamido)pentanoate] | 12.43 ± 8.58 | 57.4 ± 8.4 |
| 23.7 ± 3.1 | CC(C)C[C@H](NS(=O)(=O)c1cccs1)C(=O)Nc1ccc(N2CCOCC2)cc1 [Compound 30, (S)-4-methyl-N-(4-morpholinophenyl)-2-(thiophene-2-sulfonamido)pentanamide] | 9.46 ± 9.61 |  |
| 25.8 ± 2.5 | CC(C)C[C@H](NS(=O)(=O)c1ccc(C(C)C)cc1)C(=O)Nc1ccc(N2CCOCC2)cc1 [Compound 32, (S)-2-(4-isopropylphenylsulfonamido)-4-methyl-N-(4-morpholinophenyl)pentanamide] | 20.27 ± 5.87 |  |
| 34.4 ± 0.91 | CC(C)C[C@H](NS(=O)(=O)c1ccc(OCc2ccccc2)cc1)C(=O)N1CCOCCOCCOCC1 [Compound 34, (S)-4-(benzyloxy)-N-(4-methyl-1-oxo-1-(1,4,7-trioxa-10-azacyclododecan-10-yl)pentan-2-yl)benzenesulfonamide] | 38.82 ± 5.12 |  |
| 41.9 ± 1.66 | CC(C)C[C@H](NS(=O)(=O)c1ccc(O)cc1)C(=O)N1CCOCCOCCOCC1 [Compound 35, (S)-4-hydroxy-N-(4-methyl-1-oxo-1-(1,4,7-trioxa-10-azacyclododecan-10-yl)pentan-2-yl)benzenesulfonamide] | −1.97 ± 14.7 |  |
| 36.8 ± 2.25 | CC(C)C[C@H](NS(=O)(=O)c1ccc(C(=O)OCc2ccccc2)cc1)C(=O)N1CCOCCOCCOCC1 [Compound 36, (S)-benzyl 4-(N-(4-methyl-1-oxo-1-(1,4,7-trioxa-10-azacyclododecan-10-yl)pentan-2-yl)sulfamoyl)benzoate] | 64.40 ± 2.96 |  |
| 45 ± 7.8 | Cc1ccc(S(=O)(=O)N[C@@H](CC(=O)OC(C)(C)C)C(=O)N2CCOCC2)cc1 [Compound 37, (S)-tert-butyl 3-(4-methylphenylsulfonamido)-4-morpholino-4-oxobutanoate] | 20.33 |  |
| 32.3 ± 2.6 | Cc1ccc(S(=O)(=O)N[C@@H](Cc2ccccc2)C(=O)N2CCOCC2)cc1 [Compound 38, (S)-4-methyl-N-(1-morpholino-1-oxo-3-phenylpropan-2-yl)benzenesulfonamide] | 15.14 ± 1.24 |  |
| 7.7 ± 11.2 | Cc1ccc(S(=O)(=O)N[C@@H](CO)C(=O)N2CCOCC2)cc1 [Compound 39, (S)—N-(3-hydroxy-1-morpholino-1-oxopropan-2-yl)-4-methylbenzenesulfonamide] | −2.43 ± 0.94 |  |
| 31.3 ± 10.3 | Cc1ccc(S(=O)(=O)N[C@H](C(=O)N2CCOCC2)C(C)C)cc1 [Compound 40, (S)-4-methyl-N-(3-methyl-1-morpholino-1-oxobutan-2-yl)benzenesulfonamide] | −5.41 ± 6.12 |  |
| 52.5 ± 5.6 | Cc1ccc(S(=O)(=O)N[C@@H](CS)C(=O)N2CCOCC2)cc1 [Compound 41, (R)—N-(3-mercapto-1-morpholino-1-oxopropan-2-yl)-4-methylbenzenesulfonamide] | 12.16 ± 6.14 |  |
| -12.8 ± 10.6 | Cc1ccc(S(=O)(=O)N[C@H](C(=O)Nc2ccc(N3CCOCC3)cc2)[C@H](C)O)cc1 [Compound 42, (2S,3S)-3-hydroxy-2-(4-methylphenylsulfonamido)-N-(4-morpholinophenyl)butanamide] | 13.24 ± 6.93 |  |
| 42.9 ± 3.9 | CC[C@H](C)[C@H](NS(=O)(=O)c1ccc(C)cc1)C(=O)Nc1ccc(N2CCOCC2)cc1 [Compound 43, (2S,3S)-3-methyl-2-(4-methylphenylsulfonamido)-N-(4-morpholinophenyl)pentanamide] | 17.08 ± 7.96 |  |
|  | Cc1ccc(S(=O)(=O)N[C@@H](Cc2cc3ccccc3[nH]2)C(=O)Nc2ccc(N3CCOCC3)cc2)cc1 [Compound 46, (S)-3-(1H-indol-2-yl)-2-(4-methylphenylsulfonamido)-N-(4-morpholinophenyl) propanamide] | 61.35 ± 10.27 | 67.1 ± 10.8 |
|  | Cc1ccc(S(=O)(=O)N[C@@H](Cc2cn(C)c3ccccc23)C(=O)Nc2ccc(N3CCOCC3)cc2)cc1 [Compound 47, (S)-3-(1-methyl-1H-indol-3-yl)-2-(4-methylphenylsulfonamido)-N-(4-morpholinophenyl) propanamide] | 64.95 ± 2.84 | 38.20 ± 7.73 |
| 43.1 ± 6.46 | Cc1ccc(S(=O)(=O)N[C@@H](CC(C)C)C(=O)OCc2ccccc2)cc1 [Compound 49, (S)-benzyl 4-methyl-2-(4-methylphenylsulfonamido)pentanoate] | 96.77 ± 0.70 |  |
| 65.9 ± 4 | Cc1ccc(C(=O)N[C@@H](CC(C)C)C(=O)OCc2ccccc2)cc1 [Compound 50, (S)-benzyl 4-methyl-2-(4-methylbenzamido)pentanoate] | 75.41 ± 3.28 |  |
| 63.5 ± 4.5 | CC(C)C[C@H](NC(=O)c1ccc(C(C)(C)C)cc1)C(=O)OCc1ccccc1 [Compound 51, (S)-benzyl 2-(4-tert-butylbenzamido)-4-methylpentanoate] | 11.62 ± 4.29 |  |
